As a reminder, the inhibition is the drop in the measured response relative to a control, in per cent. Read a low inhibition as a weak effect.

Consider one compound from PMC6934184, “Selective DNA-PKcs inhibition extends the therapeutic index of localized radiotherapy and chemotherapy” (The Journal of Clinical Investigation, 2019).

The experiment addresses T1, ZAP70 (Homo sapiens, UniProt P43403).
T1 construct: purchased Thermo Fisher Scientific (Life Technologies) SelectScreen
Kind of experiment: SelectScreen Z'LYTE. The class given is biochemical. Put shortly: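 Percent values come from Thermo SelectScreen profiling of NU5455, combining activity and binding assays. CSF1R was run in Z'LYTE format at Km app ATP, and CAMK1 in Adapta format with ATP listed at 10.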

Each structure is given as a SMILES string.

T1 sequence (P43403 whole entry): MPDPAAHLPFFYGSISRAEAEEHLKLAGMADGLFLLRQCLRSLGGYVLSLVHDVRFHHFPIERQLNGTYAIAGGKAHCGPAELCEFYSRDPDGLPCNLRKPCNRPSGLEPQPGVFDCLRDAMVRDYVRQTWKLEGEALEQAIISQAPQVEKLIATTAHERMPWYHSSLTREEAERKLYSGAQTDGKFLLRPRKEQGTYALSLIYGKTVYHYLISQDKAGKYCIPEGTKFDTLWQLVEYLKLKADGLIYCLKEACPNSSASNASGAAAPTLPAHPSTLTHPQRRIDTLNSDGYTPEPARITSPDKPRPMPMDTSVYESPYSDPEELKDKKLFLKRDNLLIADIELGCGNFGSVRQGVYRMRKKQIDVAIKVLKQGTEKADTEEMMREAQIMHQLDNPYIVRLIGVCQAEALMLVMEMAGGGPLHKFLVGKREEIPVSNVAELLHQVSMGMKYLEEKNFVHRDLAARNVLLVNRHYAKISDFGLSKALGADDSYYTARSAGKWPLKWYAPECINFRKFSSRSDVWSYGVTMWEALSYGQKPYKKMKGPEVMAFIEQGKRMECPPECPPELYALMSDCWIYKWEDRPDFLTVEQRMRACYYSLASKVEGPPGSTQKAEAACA

Turning to `CN(C(=O)CN1CCOCC1)c1ccc2sc3c(-c4cccc5c(=O)cc(N6CC7CCC(C6)O7)oc45)cccc3c2c1` [NU5455], testing at 1 µM gave an inhibition of 0.3%.
